Data published in patent US11666642B2, “PDE5 compositions and methods for immunotherapy” (Obsidian Therapeutics, Inc., priority 2017, dated 2023).

Key:
Type in all cases: cell-based, human
[1] = test system: hPDE5 mutants fused to GFP in HCT116 cells; experiment: Comparative analysis of hPDE5 ligands: stabilization ratios at the highest concentrations
Procedure: (§1) Mean fluorescence intensity (MFI) was measured by FACS. Parental HCT116 and cells expressing OT-hPDE5N-019 wildtype construct were also included as controls. […] The destabilizing mutation coefficient ratio was calculated as the fold change in GFP intensity in the hPDE5 mutant constructs compared to the hPDE5 wildtype construct (OT-hPDE5N-019) in the absence of the ligand. Destabilizing mutation coefficient ratios less than 1 are desirable. Stabilization ratios greater than 1 are desired in DDs.
as §1, with “expressing OT-hPDE5N-019 comprising hPDE5 wildtype construct” for “expressing OT-hPDE5N-019 wildtype construct”, “Destabilizing mutation co-efficient ratios less” for “Destabilizing mutation coefficient ratios less”
(§2) The response of hPDE5 combination mutants to increasing doses of Tadalafil was tested. HCT116 cells transduced with hPDE5 constructs were treated with Tadalafil for 24 hours at doses ranging from 0.14 to 100 μM. Mean fluorescence intensity (MFI) was measured by FACS. Parental HCT116 and cells expressing OT-hPDE5N-019 comprising hPDE5 wildtype construct were also included as controls. The response of the combination mutants to Tadalafil was compared to the response of the single mutant construct OT-hPDE5N-020. The stabilization ratio (SR) was calculated as the fold change in GFP intensity in Tadalafil treated samples compared to treatment with DMSO (i.e. in the absence of ligand) with the same construct. The destabilizing mutation coefficient was calculated as the fold change in GFP intensity in the hPDE5 mutant constructs compared to the hPDE5 wildtype construct (OT-hPDE5N-0019) in the absence of the ligand. Destabilizing mutation coefficient less than 1 are desirable. Stabilization ratios greater than 1 are desired in DDs.

[2] = test system: hPDE5 mutants fused to GFP in HCT116 cells; experiment: Vardenafil dose response of combination mutants, MFI by FACS; details: for MFI / SR: 24 hours
Procedure: as §1, with “expressing OT-hPDE5N-019 comprising hPDE5 wildtype construct” for “expressing OT-hPDE5N-019 wildtype construct”, “Destabilizing mutation co-efficient ratios less” for “Destabilizing mutation coefficient ratios less”

[3] = test system: hPDE5 mutants fused to GFP in HCT116 cells; experiment: Tadalafil dose response of combination mutants, MFI by FACS
Procedure: as §2

[4] = test system: hPDE5 truncation mutants (R732L) fused to AcGFP in HCT 116 cells; experiment: Western blot for AcGFP of hPDE5 truncation mutants with Vardenafil; details: 10 μM Vardenafil, 24 hours
Procedure: Protein expression analysis of the truncation mutants was performed in parallel via western blot. […] GAPDH levels were also analyzed to ensure even protein loading.

[5] = test system: hPDE5 truncation mutants (R732L) fused to AcGFP in HCT-116 cells; experiment: Expression of hPDE5 truncation mutants, GFP MFI by FACS
Excerpt: Several truncation mutants of the full length hPDE5 were generated to identify regions beyond the […] catalytic domain that may serve as a template for identifying DDs. The truncation mutants tested included amino acids 535-860 of hPDE5 WT (E535-Q860), amino acids 535 to 836 of hPDE5 WT (E535-S836), amino acids 590 to 860 of hPDE5 WT (M590-Q860), amino acids 590 to 836 of hPDE5 WT (M590-S836), wherein the amino acids positions are with respect to SEQ ID NO. 1. The DD mutation R732L was incorporated into all truncation mutants and its destabilizing potential was compared to E535-Q860 wildtype by fusing the mutants to an SG linker and reporter, AcGFP. […] As a control, parental untransduced cells and cells expressing OT-hPDE5N-001, or OT-hPDE5N-028 were also included in the analysis. The mean fluorescence intensity (MFI) of GFP was analyzed by FACS. […] The destabilizing mutation coefficient was calculated as the fold change in GFP intensity in the hPDE5 mutant constructs compared to the hPDE5 wildtype construct (OT-hPDE5N-019) in the absence of the ligand. Destabilizing mutation coefficients less than 1 are desirable. Stabilization ratios greater than 1 are desired in DDs.

[6] = test system: hPDE5 mutants fused to GFP in HCT116 cells; experiment: Sildenafil dose response of combination mutants, MFI by FACS; details: for MFI / SR: 24 hours
Procedure: as §1

OT-hPDE5N-020: construct consisting of E535-Q860 amino acids of hPDE5 with the R732L mutant, SG linker, AcGFP; single mutant construct
Stabilization ratio ([1]; Sildenafil (30 μM)): 7.78 | Stabilization ratio ([1]; Tadalafil (100 μM)): 8.94 | Stabilization ratio ([1]; Vardenafil (30 μM)): 9.62 | MFI ([2]; DMSO, HCT116): 7829 | SR ([2]; Vardenafil 0.04 μM vs DMSO): 1.88 | MFI ([2]; Vardenafil 0.04 μM): 14745 | SR ([2]; Vardenafil 0.12 μM vs DMSO): 2.15 | MFI ([2]; Vardenafil 0.12 μM): 16866 | SR ([2]; Vardenafil 0.37 μM vs DMSO): 3.17 | MFI ([2]; Vardenafil 0.37 μM): 24847 | SR ([2]; Vardenafil 1.11 μM vs DMSO): 3.94 | MFI ([2]; Vardenafil 1.11 μM): 30879 | SR ([2]; Vardenafil 3.33 μM vs DMSO): 4.54 | MFI ([2]; Vardenafil 3.33 μM): 35564 | SR ([2]; Vardenafil 10 μM vs DMSO): 4.99 | MFI ([2]; Vardenafil 10 μM): 39089 | SR ([2]; Vardenafil 30 μM vs DMSO): 9.62 | MFI ([2]; Vardenafil 30 μM): 75323 | destabilizing mutation coefficient ([2]; Vardenafil dose response experiment, absence of ligand, vs OT-hPDE5N-019): 0.13 | MFI ([3]; DMSO, 24 hours, HCT116): 3806 | destabilizing mutation coefficient ([3]; Tadalafil dose response experiment, absence of ligand, vs OT-hPDE5N-019): 0.1 | AcGFP protein (western blot) with Vardenafil [4]: showed vardenafil dependent stabilization | ligand dependent stabilization (stabilization ratio) of truncation mutants ([5]; 10 μM Sildenafil or Vardenafil, 48 hours, HCT-116): strongest ligand dependent stabilization with both ligands | Sildenafil Stabilization ratio ([5]; 10 μM Sildenafil vs DMSO, 48 hours): 6.02 | Vardenafil Stabilization ratio ([5]; 10 μM Vardenafil vs DMSO, 48 hours): 10.08 | MFI Sildenafil ([5]; HCT-116, 10 μM Sildenafil, 48 hours): 55636 | MFI Vardenafil ([5]; HCT-116, 10 μM Vardenafil, 48 hours): 93216 | MFI DMSO ([5]; HCT-116, DMSO, 48 hours): 9248 | destabilizing mutation coefficient ([5]; vs hPDE5 wildtype construct in absence of ligand): 0.14 | MFI ([6]; DMSO, HCT116): 6172 | SR ([6]; Sildenafil 0.04 μM vs DMSO): 0.86 | MFI ([6]; Sildenafil 0.04 μM): 5299 | SR ([6]; Sildenafil 0.12 μM vs DMSO): 1.04 | MFI ([6]; Sildenafil 0.12 μM): 6441 | SR ([6]; Sildenafil 0.37 μM vs DMSO): 2.06 | MFI ([6]; Sildenafil 0.37 μM): 12739 | SR ([6]; Sildenafil 1.11 μM vs DMSO): 2.58 | MFI ([6]; Sildenafil 1.11 μM): 15952 | SR ([6]; Sildenafil 3.33 μM vs DMSO): 3.82 | MFI ([6]; Sildenafil 3.33 μM): 23549 | SR ([6]; Sildenafil 10 μM vs DMSO): 4.49 | MFI ([6]; Sildenafil 10 μM): 27693 | SR ([6]; Sildenafil 30 μM vs DMSO): 7.78 | MFI ([6]; Sildenafil 30 μM): 47992 | destabilizing mutation co-efficient ratio ([6]; Sildenafil dose response experiment, absence of ligand, vs OT-hPDE5N-019): 0.1
